Assay results as given in PubChem BioAssay AID2060883 (Molecular Pharmacology Branch, DTP, NCI, 2025).
pIC50: −log10 of the molar value.

Test system: 843782-103-R-J1-PDC complex spheroid viability
Assay: Anticancer human tumor 843782-103-R-J1-PDC patient-derived lung adenocarcinoma cell line growth inhibition [RAS]
Details: for pIC50: curve of first compound; for viability, T/C: stronger effect = lower value
From the text: RAS pathway inhibitors in Combinations in Complex Spheroids
A high-throughput screen of multi-cell type tumor spheroids was designed to identify active combinations of RAS pathway inhibitors and targeted small molecules. Complex spheroids include a stromal component modeled by human endothelial cells (HUVEC) and fibroblasts modeled by human mesenchymal stem cells (MSCs). The concentration ranges selected for each drug and investigational agent were based upon clinically achievable concentrations if the clinical Cmax of the agent was known.
Compounds. The drugs and investigational agents: abemaciclib (NSC768073), cobimetinib (NSC768068), divarasib (GDC6063, NSC841802), docetaxel (NSC628503), GDC-1971 (RLY-1971, NSC841576), gemcitabine (NSC613327), inavolisib (NSC800729), ipatasertib (NSC767898), KB-0742 (NSC834161), MRTX-1133 (NSC836407), osimertinib (NSC779217), RMC-4630 (NSC839698), RMC-6236 (NSC851965), RMC-6291 (NSC852671), Ro-3306 (NSC812927), sapanisertib (NSC764658), SN-38 (NSC673596), staurosporine (NSC755774), SY5609 (NSC837396), and tovorafenib (DAY101, NSC766906), were obtained from the National Cancer Institute (NCI) Developmental Therapeutics Program Chemical Repository. The FDA-approved anticancer drug set is available from the NCI Developmental Therapeutics Program. […] The stock solutions were prepared in dimethyl sulfoxide (DMSO, Sigma-Aldrich, St. Louis, MO, cat. D2650) at 800-fold the tested concentration and stored at -70 degrees C prior to their use. All drugs and investigational agents were tested over a range starting from a high concentration at or near the clinical Cmax and decreasing in half-log increments. If the clinical Cmax for an agent had not been determined, the highest concentration tested was 10 microM.
Cell Culture. All cells were maintained in an incubator at 37 degrees C and 5% CO2 with 95% humidity. The PDC lines were cultured according to standard operating procedures established by the NCI PDMR. All PDCs were thawed and cultured in Matrigel-coated flasks prepared with a working solution of 1X Ham's F-12 nutrient mix, without supplementation (Invitrogen, Waltham, MA, cat. 11765054), 100 U/mL penicillin-streptomycin (Invitrogen, cat. 15140122), and 2.5% Matrigel (Corning Inc., Corning, NY, cat. 354248) for the first three passages. The 362531-283-R-J2-PDC and 782815-120-R-J1-PDC lines were cultured in 6C/Colon 1B media, which includes advanced DMEM/F-12 (Thermo Fisher Scientific, cat. 12634028), 10 mM HEPES (Thermo Fisher Scientific, cat. 15630080), 1X GlutaMAX supplement (Thermo Fisher Scientific, cat. 35050061), 0.1 mg/mL primocin (InvivoGen, San Diego, CA, cat. ant-pm-2), 10% defined fetal bovine serum, heat inactivated (HyClone Laboratories Inc., Logan, UT, cat. SH30070.03HI), 50% L-WRN conditioned media (ATCC, cat. CRL-3276), 1.25 mM N-Acetyl-L-cysteine (Sigma-Aldrich, cat. A9165), 10 mM nicotinamide (Sigma-Aldrich, cat. N0636), 1X B-27 supplement (Thermo Fisher Scientific, cat. 17504044), 1X N-2 supplement (Thermo Fisher Scientific, cat. 17502048), 50 ng/mL human EGF (Thermo Fisher Scientific, cat. PHG0311), and 10 microM Y-27632 dihydrochloride (Tocris Bioscience, cat. 1254). The K12877-001-R-J1-PDC line was cultured in 6I media, which includes all 6C/Colon 1B media plus 10 ng/mL human FGF-10 (PeproTech, cat. 100-26), 1 ng/mL human FGF-2 (PeproTech, cat. 100-18B), 1 µM prostaglandin E2 (Tocris Bioscience, cat. 2296), […] hydrocortisone (Sigma-Aldrich, cat. H4001), and […] bovine insulin (Sigma-Aldrich, cat. I6634). The K86415-001-R-J1-PDC line was cultured in 6D media, which includes all 6C/Colon 1B media components minus the L-WRN conditioned media. The 485176-168-R4-J1-PDC was cultured in PANC media, which includes all 6C/Colon 1B media plus 100 ng/mL human FGF-10 (PeproTech, cat. 100-26), 500 nM SB-431542 (Selleckchem, cat. S1067), and 10 nM gastrin (Tocris Bioscience, cat. 3006). […]
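Note: viability read after seven days of compound exposure.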

CCN1CCN(Cc2ccc(Nc3ncc(F)c(-c4cc(F)c5nc(C)n(C(C)C)c5c4)n3)nc2)CC1 + CCn1c(-c2cccnc2C(C)OC)c2c3cc(ccc31)N1CCOC(CC(NC(=O)C(C(C)C)N(C)C(=O)C3(F)CCN(C(=O)C#CC(C)(C)N(C)C)CC3)C(=O)N3CCCC(N3)C(=O)OCC(C)(C)C2)C1
pIC50 (second compound 0.000949 µM): 6.71 | pIC50 (second compound 0.003 µM): 6.54 | pIC50 (second compound 0.00949 µM): 6.63 | pIC50 (second compound 0.03 µM): 6.39 | pIC50 (second compound 0.0949 µM): 6.48 | pIC50 (second compound 0.3 µM): 6.53 | viability, T/C (second compound 0.000949 µM, first compound 0.00316 µM): 81% | viability, T/C (second compound 0.000949 µM, first compound 0.01 µM): 73.8% | viability, T/C (second compound 0.000949 µM, first compound 0.0316 µM): 59% | viability, T/C (second compound 0.000949 µM, first compound 0.1 µM): 58.3% | viability, T/C (second compound 0.000949 µM, first compound 0.316 µM): 46.5% | viability, T/C (second compound 0.000949 µM, first compound 1 µM): 38.1% | viability, T/C (second compound 0.003 µM, first compound 0.00316 µM): 78.8% | viability, T/C (second compound 0.003 µM, first compound 0.01 µM): 69.4% | viability, T/C (second compound 0.003 µM, first compound 0.0316 µM): 62.8% | viability, T/C (second compound 0.003 µM, first compound 0.1 µM): 67.1% | viability, T/C (second compound 0.003 µM, first compound 0.316 µM): 45.4% | viability, T/C (second compound 0.003 µM, first compound 1 µM): 37.8% | viability, T/C (second compound 0.00949 µM, first compound 0.00316 µM): 71.4% | viability, T/C (second compound 0.00949 µM, first compound 0.01 µM): 72.5% | viability, T/C (second compound 0.00949 µM, first compound 0.0316 µM): 67.6% | viability, T/C (second compound 0.00949 µM, first compound 0.1 µM): 61.2% | viability, T/C (second compound 0.00949 µM, first compound 0.316 µM): 46.2% | viability, T/C (second compound 0.00949 µM, first compound 1 µM): 34.1% | viability, T/C (second compound 0.03 µM, first compound 0.00316 µM): 71.3% | viability, T/C (second compound 0.03 µM, first compound 0.01 µM): 72% | viability, T/C (second compound 0.03 µM, first compound 0.0316 µM): 71% | viability, T/C (second compound 0.03 µM, first compound 0.1 µM): 58.8% | viability, T/C (second compound 0.03 µM, first compound 0.316 µM): 56.4% | viability, T/C (second compound 0.03 µM, first compound 1 µM): 35.6% | viability, T/C (second compound 0.0949 µM, first compound 0.00316 µM): 84.2% | viability, T/C (second compound 0.0949 µM, first compound 0.01 µM): 75.7% | viability, T/C (second compound 0.0949 µM, first compound 0.0316 µM): 68.7% | viability, T/C (second compound 0.0949 µM, first compound 0.1 µM): 60.3% | viability, T/C (second compound 0.0949 µM, first compound 0.316 µM): 46.7% | viability, T/C (second compound 0.0949 µM, first compound 1 µM): 45% | viability, T/C (second compound 0.3 µM, first compound 0.00316 µM): 72% | viability, T/C (second compound 0.3 µM, first compound 0.01 µM): 66.1% | viability, T/C (second compound 0.3 µM, first compound 0.0316 µM): 56.5% | viability, T/C (second compound 0.3 µM, first compound 0.1 µM): 66.8% | viability, T/C (second compound 0.3 µM, first compound 0.316 µM): 46% | viability, T/C (second compound 0.3 µM, first compound 1 µM): 38.8%
